Legend:
[1] = target: T1, CYP2C19 (Homo sapiens, UniProt P33261); experiment: CYP-direct inhibition, CYP2C19; assay type: in vitro ADME
T1 construct: from tissue; host or cells: pooled human liver microsomes
Experimental: (§1) Many drugs inhibit cytochrome P450 enzymes to cause clinically significant changes in the pharmacokinetics of other drugs. In vitro cytochrome P450 inhibition, can provide crucial information in evaluating potential clinical drug-drug interactions and is useful for focusing in vivo tests to areas of concern. The cytochrome P450 inhibition assay was developed by preparing a working cocktail solution consisting of six probe substrates 10 μM ethoxy-resorufin (CYP1A2), 100 μM rosiglitazone (CYP2C8), 50 μM diclofenac (CYP2C9), 300 μM S-mephenytoin (CYP2C19), 50 μM dextromethorphan (CYP2D6), and 20 μM midazolam (CYP3A4). A mixture solution consists of 140 uL of 0.286 mg/mL of pooled human liver microsome working solution and 20 uL working solutions of test articles, standard control inhibitors, or positive control placebo and 20 uL of substrate cocktail mixture working solution was prepared. The mixture solution was pre-warm in a gentle shaking bath at 37±2° C. for 5 minutes. The enzymatic reaction started by adding 20 uL of NRS working solution to the mixture solution and incubated for 10 minutes at 37±2° C. To stop the reaction, an addition of 400 μL cold stop solution (acetonitrile containing 50 ng/mL Tolbutamide as an internal standard (I.Std.) was added to the mixture solution. The final concentration of test article, inhibitors, substrates, and cofactors are noted in Table 0.1 below. Two individual samples were prepared for each test compound. The extracted samples were vortexed and then centrifuged at 4500 rpm for 7 minutes using Eppendorf Centrifuge 5910R. 200 uL of supernatant was diluting with 200 uL of 50% Methanol into 96-DW plate for LC/MS/MS analysis
(§2) Concentration-response plots are used to determine the effects of an inhibitor on an enzymatic reaction. A typical concentration-response plot provides fractional activity (Y axis) is plotted as a function of log inhibitor concentration (X axis). The data are fitted using a standard Sigmoidal dose-response equation which is also called a […] logistic equation. The concentration of compound that results in 50% inhibition of maximal activity is termed as the IC50 (inhibitor concentration yielding 50% inhibition). IC50 value is calculated using Prism GraphPad software, version 9. […].
(§3) Cytochrome P450 inhibition of a drug is a key factor in determining pharmacokinetic drug-drug interactions. The objective of this study was to evaluate the inhibition potential of G9a inhibitors on six (6) major human cytochrome P450 enzymes, including CYP1A2, CYP2C8, CYP2C9, CYP2C19, CYP2D6, and CYP3A4. Inhibition was determined by using a substrate cocktail and analyzing the rate of specific metabolites formation. The cytochrome P450 inhibition assay was developed using a cocktail consisting of six (6) probe substrates ethoxy-resorufin (CYP1A2), rosiglitazone (CYP2C8), diclofenac (CYP2C9), S-mephenytoin (CYP2C19), dextromethorphan (CYP2D6), and midazolam (CYP3A4). The cocktail was incubated in human liver microsome with NADPH regenerating system (NRS) in a shaking bath at 37±2° C. The formation of specific metabolites was monitored by LC/MS/MS. Test compound was added to the cocktail-liver microsome mixture at varying concentrations and its effect on cytochrome P450 activity was determined by analyzing the rate of specific metabolite formation. The percent inhibition was calculated and plotted with reference to the concentration, and the IC50 value for inhibition was derived by fitting the data with a using log(inhibitor) vs. normalized response with variable slope least squares fit by Graphpad Prism® software. […].

[2] = target: T2, CYP1A2 (Homo sapiens, UniProt P05177); experiment: CYP-direct inhibition, CYP1A2; assay type: in vitro ADME; conditions: human liver microsome; substrate ethoxy-resorufin; read-out: IC50 CYP-1A2
T2 construct: from tissue; host or cells: pooled human liver microsomes
T2 sequence (P05177 1-516): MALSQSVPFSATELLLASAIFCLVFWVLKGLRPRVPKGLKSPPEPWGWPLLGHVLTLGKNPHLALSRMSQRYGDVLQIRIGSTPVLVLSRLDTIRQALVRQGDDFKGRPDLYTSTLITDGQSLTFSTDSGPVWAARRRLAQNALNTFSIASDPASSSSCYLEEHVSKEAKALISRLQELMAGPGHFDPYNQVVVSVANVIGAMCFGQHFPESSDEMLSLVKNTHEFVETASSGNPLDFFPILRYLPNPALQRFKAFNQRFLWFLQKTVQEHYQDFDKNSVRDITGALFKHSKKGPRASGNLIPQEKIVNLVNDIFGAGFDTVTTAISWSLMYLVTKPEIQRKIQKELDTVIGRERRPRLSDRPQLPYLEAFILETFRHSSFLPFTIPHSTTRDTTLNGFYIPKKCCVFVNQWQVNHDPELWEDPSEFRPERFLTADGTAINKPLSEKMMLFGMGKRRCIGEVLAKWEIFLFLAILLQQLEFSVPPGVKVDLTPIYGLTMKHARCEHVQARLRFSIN
Experimental: as §1, §2, §3

[3] = target: T3, CYP2C9 (Homo sapiens, UniProt P11712); experiment: CYP-direct inhibition, CYP2C9; assay type: in vitro ADME
T3 construct: from tissue; host or cells: pooled human liver microsomes
Experimental: as §1, §2, §3

[4] = target: T4, CYP2D6 (Homo sapiens, UniProt P10635); experiment: CYP-direct inhibition, CYP2D6; assay type: in vitro ADME; conditions: human liver microsome; substrate dextromethorphan; read-out: IC50 CYP-2D6
T4 construct: from tissue; host or cells: pooled human liver microsomes
Experimental: as §1, §2, §3

[5] = PAMPA permeability; conditions: PAMPA, 5 hours at RT
[6] = PAMPA permeability Classification, 20 μM donor
[7] = Permeability, Pe, 20 μM donor in PBS/MeOH 90:10

T3 sequence (P11712 whole entry): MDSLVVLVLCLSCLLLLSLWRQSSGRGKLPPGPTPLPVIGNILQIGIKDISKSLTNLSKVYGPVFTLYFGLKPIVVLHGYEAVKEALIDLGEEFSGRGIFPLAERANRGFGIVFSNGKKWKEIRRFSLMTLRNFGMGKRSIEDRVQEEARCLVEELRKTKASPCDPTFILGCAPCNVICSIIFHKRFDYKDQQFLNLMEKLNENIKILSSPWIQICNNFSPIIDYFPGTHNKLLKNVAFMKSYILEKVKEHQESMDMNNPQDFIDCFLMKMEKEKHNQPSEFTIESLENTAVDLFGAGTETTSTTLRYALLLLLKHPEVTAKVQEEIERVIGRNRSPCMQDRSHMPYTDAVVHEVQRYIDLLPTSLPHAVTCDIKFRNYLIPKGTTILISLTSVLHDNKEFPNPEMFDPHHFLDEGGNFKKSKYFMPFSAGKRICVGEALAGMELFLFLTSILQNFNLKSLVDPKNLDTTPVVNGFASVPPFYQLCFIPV
T4 sequence (P10635 whole entry): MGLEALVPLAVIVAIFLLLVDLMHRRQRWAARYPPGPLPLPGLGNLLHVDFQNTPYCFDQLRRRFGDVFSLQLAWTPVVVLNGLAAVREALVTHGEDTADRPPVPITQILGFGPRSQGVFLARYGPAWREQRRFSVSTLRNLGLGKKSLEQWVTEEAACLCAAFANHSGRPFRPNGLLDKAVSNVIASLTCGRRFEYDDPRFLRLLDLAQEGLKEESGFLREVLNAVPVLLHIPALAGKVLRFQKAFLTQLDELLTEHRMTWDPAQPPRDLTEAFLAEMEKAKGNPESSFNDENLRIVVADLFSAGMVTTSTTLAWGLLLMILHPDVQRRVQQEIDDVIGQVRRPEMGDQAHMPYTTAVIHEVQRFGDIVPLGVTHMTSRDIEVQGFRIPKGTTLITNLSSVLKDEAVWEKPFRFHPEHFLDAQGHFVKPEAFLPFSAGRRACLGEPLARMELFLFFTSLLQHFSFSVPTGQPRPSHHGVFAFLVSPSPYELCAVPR
T1 sequence (P33261 whole entry): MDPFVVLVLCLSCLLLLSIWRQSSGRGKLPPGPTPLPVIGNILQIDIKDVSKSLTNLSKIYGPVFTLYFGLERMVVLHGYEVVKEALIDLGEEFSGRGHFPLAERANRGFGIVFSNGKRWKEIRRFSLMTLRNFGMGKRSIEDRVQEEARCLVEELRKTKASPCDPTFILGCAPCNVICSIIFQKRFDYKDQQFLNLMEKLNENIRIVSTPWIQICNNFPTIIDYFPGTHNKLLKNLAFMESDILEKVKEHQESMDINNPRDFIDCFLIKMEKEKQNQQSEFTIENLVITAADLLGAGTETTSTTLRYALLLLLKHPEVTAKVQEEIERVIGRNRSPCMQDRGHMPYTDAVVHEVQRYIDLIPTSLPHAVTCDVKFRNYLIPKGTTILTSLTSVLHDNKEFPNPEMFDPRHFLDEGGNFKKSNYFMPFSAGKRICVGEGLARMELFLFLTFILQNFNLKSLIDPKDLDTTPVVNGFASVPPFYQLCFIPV

Row | SMILES | IC50 [1] [µM] | IC50 [2] [µM] | IC50 [3] [µM] | IC50 [4] [µM] | Papp at 5 h, 20 μM [5, 6] [×10⁻⁶ cm/s] | Papp at 5 h, 20 μM [5, 7] [×10⁻⁶ cm/s]
1 | COc1cc2c(NC3CCOCC3)nc(N3CCC3)nc2cc1OCCCN1CCCC1 [Compound 174, 2-(azetidin-1-yl)-6-methoxy-7-(3-(pyrrolidin-1-yl)propoxy)-N-(tetrahydro-2H-pyran-4-yl)quinazolin-4-amine] | > 100 | 63.1 | > 100 | 23 | 0.055 to 1.5 | 0.0754
2 | COc1cc2c(NC3CCOCC3)nc(N3CCOCC3)nc2cc1OCCCN1CCCC1 [Compound 195, 6-methoxy-2-morpholino-7-(3-(pyrrolidin-1-yl)propoxy)-N-(tetrahydro-2H-pyran-4-yl)quinazolin-4-amine] | > 100 | > 100 | > 100 | > 100 | 0.055 to 1.5 | 0.238
3 | COc1cc2c(NC3CCOCC3)nc(N3CCS(=O)(=O)CC3)nc2cc1OCCCN1CCCC1 [Compound 196, 4-(6-methoxy-7-(3-(pyrrolidin-1-yl)propoxy)-4-((tetrahydro-2H-pyran-4-yl)amino)quinazolin-2-yl)thiomorpholine 1,1-dioxide] | > 100 | > 100 | > 100 | 84.8 | < 0.055 | 0.035
4 | COc1cc2c(NC3CCN(C(C)C)CC3)nc(N3CCC3)nc2cc1OCCCN1CCCC1 [Compound 234, 2-(azetidin-1-yl)-N-(1-isopropylpiperidin-4-yl)-6-methoxy-7-(3-(pyrrolidin-1-yl)propoxy)quinazolin-4-amine] | > 100 | > 100 | > 100 | 77.9 | < 0.055 | 0.000285
5 | COc1cc2c(NC3CCN(C(C)C)CC3)nc(C#N)nc2cc1OCCCN1CCCC1 [Compound 235, 4-((1-isopropylpiperidin-4-yl)amino)-6-methoxy-7-(3-(pyrrolidin-1-yl)propoxy)quinazoline-2-carbonitrile] | > 100 | > 100 | > 100 | > 100 | < 0.055 | 0.0046
6 | COc1cc2c(NC3CCOCC3)nc(N3CCN(C)CC3)nc2cc1OCCCN1CCCC1 [Compound 236, 6-methoxy-2-(4-methylpiperazin-1-yl)-7-(3-(pyrrolidin-1-yl)propoxy)-N-(tetrahydro-2H-pyran-4-yl)quinazolin-4-amine] | > 100 | > 100 | > 100 | > 100 | < 0.055 | 0.0299
7 | COc1cc2c(NC3CCOCC3)nc(N3CCCN(C)CC3)nc2cc1OCCCN1CCCC1 [Compound 237, 6-methoxy-2-(4-methyl-1,4-diazepan-1-yl)-7-(3-(pyrrolidin-1-yl)propoxy)-N-(tetrahydro-2H-pyran-4-yl)quinazolin-4-amine] | > 100 | > 100 | > 100 | 86.2 | < 0.055 | 0.00431
8 | COc1cc2c(NC3CCS(=O)(=O)CC3)nc(N3CCC(F)(F)CC3)nc2cc1C#CCN1CCCC1 [Compound 248, 4-((2-(4,4-difluoropiperidin-1-yl)-6-methoxy-7-(3-(pyrrolidin-1-yl)prop-1-yn-1-yl)quinazolin-4-yl)amino)tetrahydro-2H-thiopyran 1,1-dioxide] | > 100 | > 100 | > 100 | 55.9 | 0.055 to 1.5 | 1.32
